According to publication PMC11404609, “Gut microbiota-mediated C-sulfonate metabolism impairs the bioavailability and anti-cholestatic efficacy of andrographolide” (Gut Microbes, 2024):

Key:
[1] = test system: FXR; experiment: FXR expression in liver (RNA sequencing, qPCR, Western blot); type: in vivo, mice
Experimental: RNA in liver tissue was isolated from mice treated with ANIT and ANIT+AP (200 mg/kg, i.p.) and purified by TRIzol (Invitrogen, CA). The isolated RNA was quantified using Qubit 2.0 (Thermo Fisher Scientific, USA) following the manufacturer’s protocol. Libraries were prepared using the NEBNext® UltraTM RNA Library Prep Kit for Illumina® (NEB, USA) and sequenced on a Novaseq 6000 (Illumina, USA) at Novogene’s deep sequencing facility. Mapped reads from each sample were assembled using StringTie (v1.3.3b) in a reference-based approach, and featureCounts was used to quantify mapped reads. Differential expression analysis of two conditions/groups was performed using the DESeq2 R package (1.20.0).
Total RNA from frozen livers of Vehicle, AP (200 mg/kg, i.p.), ANIT (50 mg/kg), and ANIT+AP (200 mg/kg, i.p.) groups was extracted using the Animal Total RNA Isolation Kit (FOREGENE, China). cDNA was synthesized using a Color Reverse Transcription Kit (EZBioscience, Roseville, CA, USA). qPCR was performed using SYBR green/Rox qPCR master mix (EZBioscience, Roseville, CA, USA), according to the manufacturer’s instruction. The expression of target genes was normalized to β-actin, and fold changes were calculated using 2^–ΔΔCT method. For bacterial identification, genomic DNA of fecal flora was isolated using the TIANamp Stool DNA Kit (TIANGEN, Beijing, China) and qPCR was performed. […]

[2] = Tissue distribution of AP and APM in mice; type: in vivo
Experimental: Control and ABX rats were orally administered a single dose of AP at 120 mg/kg. Control, ABX and germ-free C57BL/6J mice were orally administered a single dose of AP at 100 mg/kg. After 90 min of AP administration, all animals were euthanized, and blood and tissue samples were collected for subsequent analysis.
After 360 min of AP treatment, all mice were euthanized, and tissue samples were collected for subsequent analysis. […]
An ACQUITY^TM UPLC-MS/MS system equipped with an ACQUITY^TM UPLC BEH C18 Column (50 × 2.1 mm I.D., 1.7 μm, Waters, Milford, MA, USA) was utilized for the quantification of AP and APM as previously described.[47] Briefly, the detection samples (50 μL) were mixed with 50 μL of IS (50 ng/mL). AP and APM were extracted by 400 μL cold methanol. Supernatants were dried under nitrogen stream. Then, the residue was dissolved with 50% methanol in water, centrifuged for 30 min at 13,000 rpm, and 10 µL of the supernatant was subjected to UPLC-MS/MS analysis. The mobile phases consisted of eluent A (water) and eluent B (methanol) with a gradient elution as follows: 0–0.8 min, 10% B; 0.8–1.2 min, 10–90% B; 1.2–5.0 min, 90% B; 5.0–5.5 min, 90–10% B; 5.5–7.0 min, 10% B. The flow rate was 0.3 mL/min and the injection volume of all samples was 10 μL. The quantification of AP, APM and IS was performed by UPLC-MS/MS using an MRM method with the transitions of m/z 349.1→m/z 287.2 for AP, m/z 413.2→m/z 287.2 for APM, m/z 269→m/z 133 for IS.
AP was administered intravenously and orally to detect the production of the C-sulfonate metabolite APM. In tissue distribution experiment, rats were given AP intravenously (24 mg/kg) or orally (120 mg/kg), while mice received AP intravenously (20 mg/kg) or orally (100 mg/kg). After a 90-minute interval, the animals were sacrificed, and their liver, kidneys, small intestine, and colon were collected for analysis. In pharmacokinetic studies, rats were administered 24 mg/kg of AP intravenously or 120 mg/kg of AP by oral gavage. Blood samples were collected at predetermined time intervals (0, 5, 10, 20, 30, 40, 60, 90, 120, 180, 240, 360, and 480 min), as described, to detect the content of AP and APM by UPLC-MS/MS.

C=C1CC[C@@H]2[C@](C)(CO)[C@H](O)CC[C@@]2(C)[C@@H]1C/C=C1/C(=O)OC[C@H]1O [AP, Andrographolide]
expression of Fxr (Nr1h4) by RNA-sequencing ([1]; ANIT+AP (200 mg/kg, i.p.) vs ANIT): significant upregulation | FXR expression by qPCR and Western blot ([1]; after AP treatment (200 mg/kg, i.p.)): upregulation of FXR expression | concentration of AP in tissues ([2]; ABX-treated mice vs Control, AP 100 mg/kg oral): notably increased | C-sulfonate metabolism of AP ([2]; germ-free mice, AP 100 mg/kg oral): suppressed | AP concentration in tissues such as the liver ([2]; mice colonized with D. piger vs Control, AP 100 mg/kg p.o.): notable reduction | concentration of AP in the intestine and liver ([2]; mice of pharmacological experiment, AP 200 mg/kg, following ABX treatment vs Control): significantly increased | AP levels in mouse tissues ([2]; mice, AP 100 mg/kg p.o., Na2SO4 pre-treatment vs Control): decreased AP levels | AP levels in mouse tissues ([2]; mice, AP 100 mg/kg p.o., bromocriptine mesylate pre-treatment vs Control): elevated AP levels | AP exposure within the small intestine and liver ([2]; mice, AP 200 mg/kg p.o. with APS reductase inhibitor vs without): increase in AP exposure
